# According to ChEMBL document CHEMBL2046343, “'Click' synthesis of a triazole-based inhibitor of Met functions in cancer cells” (Bioorg Med Chem Lett, 2012):
# Active and inactive are the calls of the source. No cut-off for these calls is given here.
# Tests used:
# [1] = (§1) Cytotoxicity against human GTL16 cells expressing MET assessed as inhibition of anchorage-independent cell growth treated every 3 days for 2 weeks by MTT assay; assay type: functional, cell-based; details: GTL 16
# MDCK = experiment: Cytotoxicity against MDCK cells at IC50; assay type: cell-based, Canis lupus familiaris; details: dog
# H1437 = experiment: Inhibition of HGF-induced Met R988C mutant phosphorylation at Tyr1234 and Tyr1235 in human H1437 cells at 10 uM by immunoblotting
# GTL 16 = experiment: as §1; assay type: functional, cell-based
# NCI-H1437 = experiment: Cytotoxicity against human NCI-H1437 cells assessed as inhibition of anchorage-independent cell growth treated every 3 days for 2 weeks by MTT assay; assay type: functional, cell-based
# [2] = molecular target: Hepatocyte growth factor receptor (Canis lupus familiaris) (UniProt Q75ZY9); experiment: Inhibition of HGF-induced Met phosphorylation at Tyr1234 and Tyr1235 in MDCK cells at 10 uM by immunoblotting; assay type: cell-based
# Sequence of Hepatocyte growth factor receptor (Canis lupus familiaris) (Q75ZY9 whole entry): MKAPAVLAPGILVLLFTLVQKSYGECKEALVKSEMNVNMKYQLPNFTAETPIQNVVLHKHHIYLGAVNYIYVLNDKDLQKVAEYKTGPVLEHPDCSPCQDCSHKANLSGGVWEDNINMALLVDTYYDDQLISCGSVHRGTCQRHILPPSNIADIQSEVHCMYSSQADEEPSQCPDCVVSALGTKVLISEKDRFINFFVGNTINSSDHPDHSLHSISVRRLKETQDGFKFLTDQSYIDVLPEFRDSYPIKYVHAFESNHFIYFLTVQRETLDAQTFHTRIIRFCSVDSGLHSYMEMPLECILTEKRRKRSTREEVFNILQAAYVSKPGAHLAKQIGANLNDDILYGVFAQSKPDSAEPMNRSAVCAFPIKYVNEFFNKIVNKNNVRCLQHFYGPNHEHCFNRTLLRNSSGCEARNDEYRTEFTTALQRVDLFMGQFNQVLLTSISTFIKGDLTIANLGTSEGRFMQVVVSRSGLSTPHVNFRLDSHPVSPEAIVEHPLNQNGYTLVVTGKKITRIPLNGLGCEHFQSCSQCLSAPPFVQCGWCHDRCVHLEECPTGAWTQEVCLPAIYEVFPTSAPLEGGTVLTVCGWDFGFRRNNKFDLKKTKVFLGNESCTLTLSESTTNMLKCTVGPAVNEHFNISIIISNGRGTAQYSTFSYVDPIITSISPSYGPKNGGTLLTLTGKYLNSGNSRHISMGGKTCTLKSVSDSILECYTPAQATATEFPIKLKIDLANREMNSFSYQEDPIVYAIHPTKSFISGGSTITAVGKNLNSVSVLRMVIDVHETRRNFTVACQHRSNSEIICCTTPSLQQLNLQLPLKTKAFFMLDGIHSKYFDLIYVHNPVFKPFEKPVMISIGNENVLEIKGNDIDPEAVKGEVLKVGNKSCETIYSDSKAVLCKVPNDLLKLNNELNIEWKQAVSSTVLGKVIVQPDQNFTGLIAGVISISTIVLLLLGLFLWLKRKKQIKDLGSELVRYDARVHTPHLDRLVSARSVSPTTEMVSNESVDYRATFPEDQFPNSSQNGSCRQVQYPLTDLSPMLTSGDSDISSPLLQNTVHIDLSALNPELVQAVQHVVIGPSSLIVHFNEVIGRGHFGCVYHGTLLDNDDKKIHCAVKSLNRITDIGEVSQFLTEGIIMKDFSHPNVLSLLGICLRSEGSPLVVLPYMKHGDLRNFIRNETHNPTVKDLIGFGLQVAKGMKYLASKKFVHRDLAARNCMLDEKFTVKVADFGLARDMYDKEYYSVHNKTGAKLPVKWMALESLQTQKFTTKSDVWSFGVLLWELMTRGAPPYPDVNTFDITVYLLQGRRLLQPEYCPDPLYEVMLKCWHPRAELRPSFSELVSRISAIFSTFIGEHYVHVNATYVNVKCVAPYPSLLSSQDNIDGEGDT
SMILES,IC50 [1],Activity (MDCK),inhibition (H1437),growth inhibition (GI) (GTL 16),growth inhibition (GI) (NCI-H1437),inhibition [2]
O=C(Cc1cc(C(F)(F)F)cc(C(F)(F)F)c1)N[C@H](Cc1ccccc1)C(=O)Nc1ccc(-c2cn3c(n2)sc2ccccc23)cc1,1190 nM,Non-toxic,,,,
O=C(Cc1cc(C(F)(F)F)cc(C(F)(F)F)c1)N[C@@H](Cc1ccccc1)C(=O)Nc1ccc(-c2cn3c(n2)sc2ccccc23)cc1,800 nM,Non-toxic,,,,
O=C(Cc1cc(C(F)(F)F)cc(C(F)(F)F)c1)NC(Cc1ccccc1)c1cn(-c2ccc(-c3cn4c(n3)sc3ccccc34)cc2)nn1 (stereo not given),8500 nM,Non-toxic,Active,Dose-dependent effect,Dose-dependent effect,Active
